Experimental data from PMC8078842 (PLoS Neglected Tropical Diseases, 2021).
Where a name gives a salt, the structure may show the parent alone. Read-outs that look alike come from different tables or passages of the source. Bridge positions count the residues as written; N and C are the ends. Ends that are not written are not given here.

Columns and labels:
[1] = molecular target: Imidazoline, I2 [central]; set-up: method as in PERKIN ELMER; settings: reference compound of the assay; ref PERKIN ELMER; cited from earlier work
human red blood cells = test: Haemolysis assay; format: cell-based
Experimental: Haemolysis Assay. The assay is based on the protocol detailed by. To determine the total blood haemoglobin, the CMH method was used to map a standard curve based on the absorption wavelength at 540 nm. Nine calibration standards were produced by preparing a stock solution of 5 mg/ml (standard 1) using haemoglobin standards in CMH reagent and serially diluting it to produce further standards of concentrations 2.5, 1, 0.80, 0.40, 0.20, 0.10, 0.05, and 0.025 mg/ml. 10% Triton X-100 (v/v) was prepared using distilled water to be used as the positive control. A 0.05% solution of DMSO was prepared using distilled water and used as one of the negative controls. 0.9% saline was another negative control. Pluronic samples were prepared in 0.9% saline.
A 5 ml vial of whole blood was centrifuged at 800 g for 15 minutes at room temperature. The supernatant was removed, and the […] was used to determine the plasma free haemoglobin (PFH) concentration.
200 μl x 2 of each of the calibration standards prepared were then transferred onto the 96-well plate and 200 μl x 4 of CMH reagent (control 1). […] After shaking it gently for a few minutes, the absorbance was read at 540 nm. […] 100 μl of CMH reagent was added to all these before measuring the absorbance spectrophotometrically at 540 nm. Using the calibration curve mapped earlier, the haemoglobin concentration in each of the wells was determined. […]

[2] = molecular target: Glutamate,NMDA,Glycine (Stry-insens Site) (Ionot); settings: read-out: Reference Ki; reference compound of the assay; ref PERKIN ELMER; cited from earlier work
[3] = molecular target: Potassium Channel, Ca2+ Act., VI; set-up: method as in PERKIN ELMER; settings: reference compound of the assay; ref PERKIN ELMER; cited from earlier work
[4] = molecular target: Corticotropin Releasing Factor, Non-selective; set-up: method as in PERKIN ELMER; settings: reference compound of the assay; ref PERKIN ELMER; cited from earlier work
[5] = molecular target: Muscarinic, Non-selective, Central; set-up: method as in PERKIN ELMER; settings: reference compound of the assay; ref PERKIN ELMER; cited from earlier work
[6] = molecular target: Glycine, Strychnine-sensitive; settings: read-out: Reference Ki; reference compound of the assay; ref PERKIN ELMER; cited from earlier work
[7] = molecular target: Cholecystokinin, CCK2 (CCKB); set-up: method as in PERKIN ELMER; settings: reference compound of the assay; ref PERKIN ELMER; cited from earlier work
[8] = molecular target: Nicotinic, Neuronal (a-BnTx insensitive); set-up: method as in PERKIN ELMER; settings: reference compound of the assay; ref PERKIN ELMER; cited from earlier work
[9] = molecular target: Decarboxylase, Glutamic Acid; set-up: method as in PERKIN ELMER; settings: reference compound of the assay; ref PERKIN ELMER; cited from earlier work
Adenosine, Non-selective = settings: read-out: Reference Ki; reference compound of the assay; ref PERKIN ELMER; cited from earlier work
Sodium, Site 2 = molecular target: Sodium, Site 2; set-up: method as in PERKIN ELMER; settings: reference compound of the assay; ref PERKIN ELMER; cited from earlier work
[10] = molecular target: Nitric Oxide, NOS (Neuronal-Binding); set-up: method as in PERKIN ELMER; settings: reference compound of the assay; ref PERKIN ELMER; cited from earlier work
Esterase, Acetylcholine = molecular target: Esterase, Acetylcholine; set-up: method as in PERKIN ELMER; settings: reference compound of the assay; ref PERKIN ELMER; cited from earlier work
[11] = molecular target: Glutamate, MK-801 Site (Ionotropic); set-up: method as in PERKIN ELMER; settings: reference compound of the assay; ref PERKIN ELMER; cited from earlier work
[12] = molecular target: GABA A, BDZ, alpha 1 site; settings: read-out: Reference Ki; reference compound of the assay; ref PERKIN ELMER; cited from earlier work
[13] = cited from earlier work
[14] = molecular target: Potassium Channel, ATP-Sensitive; set-up: method as in PERKIN ELMER; settings: reference compound of the assay; ref PERKIN ELMER; cited from earlier work
[15] = molecular target: Adrenergic, Beta, Non-selective; set-up: method as in PERKIN ELMER; settings: reference compound of the assay; ref PERKIN ELMER; cited from earlier work
Histamine, H1 = molecular target: Histamine, H1; set-up: method as in PERKIN ELMER; settings: reference compound of the assay; ref PERKIN ELMER; cited from earlier work
P-gp (human MDR1) = test: in vitro; settings: dog, UPLC-MS/MS
[16] = molecular target: Glutamate, Kainate Site (Ionotropic); set-up: method as in PERKIN ELMER; settings: reference compound of the assay; ref PERKIN ELMER; cited from earlier work
[17] = molecular target: Glutamate, AMPA Site (Ionotropic); set-up: method as in PERKIN ELMER; settings: reference compound of the assay; ref PERKIN ELMER; cited from earlier work
Angiotensin II, AT2 = molecular target: Angiotensin II, AT2; set-up: method as in PERKIN ELMER; settings: reference compound of the assay; ref PERKIN ELMER; cited from earlier work
[18] = molecular target: T1, Oxidase, MAO-A-Peripheral (Rattus norvegicus, UniProt P21396); set-up: method as in PERKIN ELMER; settings: reference compound of the assay; ref PERKIN ELMER; cited from earlier work
T1 sequence (P21396 1-526): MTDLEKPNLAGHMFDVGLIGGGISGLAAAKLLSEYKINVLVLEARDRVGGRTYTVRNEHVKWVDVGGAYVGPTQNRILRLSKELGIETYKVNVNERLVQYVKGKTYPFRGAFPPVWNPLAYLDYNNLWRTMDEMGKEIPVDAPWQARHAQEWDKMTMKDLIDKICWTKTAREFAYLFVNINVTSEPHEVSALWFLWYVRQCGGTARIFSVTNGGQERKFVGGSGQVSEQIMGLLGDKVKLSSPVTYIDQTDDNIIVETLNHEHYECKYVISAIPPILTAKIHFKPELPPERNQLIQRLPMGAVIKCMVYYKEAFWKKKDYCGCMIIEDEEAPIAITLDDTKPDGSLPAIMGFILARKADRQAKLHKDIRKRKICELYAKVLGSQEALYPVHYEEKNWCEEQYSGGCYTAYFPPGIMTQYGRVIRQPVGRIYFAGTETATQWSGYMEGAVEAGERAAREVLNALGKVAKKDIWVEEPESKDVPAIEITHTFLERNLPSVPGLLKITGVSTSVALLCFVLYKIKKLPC

[19] = molecular target: Glutamate, NMDA Agonist Site (Ionotropic); set-up: method as in PERKIN ELMER; settings: reference compound of the assay; ref PERKIN ELMER; cited from earlier work
Melatonin, Non-selective = molecular target: Melatonin, Non-selective; set-up: method as in PERKIN ELMER; settings: reference compound of the assay; ref PERKIN ELMER; cited from earlier work
[20] = MDCK-MDR1, pH 7.4, Papp A2B Replicate 1, 10 µM
[21] = MDCK-MDR1, pH 7.4, Papp A2B Replicate 2, 10 µM
[22] = MDCK-MDR1, pH 7.4, Papp B2A Replicate 1, 10 µM
[23] = MDCK-MDR1, pH 7.4, Papp B2A Replicate 2, 10 µM

## c1ccc2oc(C3=NCCN3)cc2c1 [2-BFI]
[1]
  Ki: 0.381 nM

## Triton X-100 [10% Triton X-100]
Human red blood cells
  haemolysis: caused haemolysis

## O=C(O)/C(=C/c1c(C(=O)O)[nH]c2cc(Cl)cc(Cl)c12)c1ccccc1 [MDL-105,519]
[2]
  Ki: 31.5 nM

## Apamin (CNCKAPETALCARRCQQH-NH2; disulfide 1-11, 3-15; ends not checked; UniProt P01500 28-45, looked up)
[3]
  Ki: 0.205 nM

## Tyr0-oCRF
[4]
  Ki: 10.7 nM

## CN1[C@@H]2CC[C@H]1C[C@@H](OC(=O)C(CO)c1ccccc1)C2 (some centres unmarked) [Atropine sulfate]
[5]
  Ki: 0.311 nM

## O=C1C[C@@H]2OCC=C3CN4CC[C@]56c7ccccc7N1[C@H]5[C@H]2[C@H]3C[C@H]46 [Strychnine nitrate]
[6]
  Ki: 28.1 nM

## CCK-8 (sulfated)
[7]
  Ki: 0.307 nM

## Clc1ccc([C@@H]2C[C@H]3CC[C@@H]2N3)cn1 (racemic) [(+/-) Epibatidine]
[8]
  Ki: 0.0912 nM

## NOCC(=O)O [AminoOxy acetic acid]
[9]
  Ki: 1170 nM

## CCNC(=O)[C@H]1O[C@@H](n2cnc3c(N)ncnc32)[C@H](O)[C@@H]1O [Neca]
Adenosine, Non-selective
  Ki: 7.46 nM

## CCN1C[C@]2(COC)[C@H](O)C[C@H](OC)[C@@]34[C@@H]5C[C@@]6(O)[C@H](OC(=O)c7ccccc7)[C@@H]5[C@@](OC(C)=O)([C@@H]([C@H](OC)[C@H]23)[C@@H]14)[C@@H](O)[C@@H]6OC [Aconitine]
Sodium, Site 2
  Ki: 2290 nM

## NC(=NCCC[C@H](N)C(=O)O)N[N+](=O)[O-] [NOARG (Nitro-L-Arginine)]
[10]
  Ki: 26.3 nM

## CNC(=O)Oc1ccc2c(c1)[C@]1(C)CCN(C)[C@@H]1N2C [Eserine (Physostigmine)]
Esterase, Acetylcholine
  Ki: 385 nM

## (+)-MK-801 HMaleate
[11]
  Ki: 12.4 nM

## CCOC(=O)c1ncn2c1CN(C)C(=O)c1cc(F)ccc1-2 [Ro15-1788 (Flumazenil)]
[12]
  Ki: 0.721 nM

## c1cc2ccc3cccc4ccc(c1)c2c34 [pyrene]
[13]; F68
  log P for pyrene/Pluronics: ca. 2.5
[13]; P105
  log P for pyrene/Pluronics: ~3.5

## COc1ccc(Cl)cc1C(=O)NCCc1ccc(S(=O)(=O)NC(=O)NC2CCCCC2)cc1 [Glibenclamide]
[14]
  Ki: 0.781 nM

## C=CCc1ccccc1OCC(O)CNC(C)C (centres unmarked) [Alprenolol HCl]
[15]
  Ki: 4.55 nM

## Cc1ccc(/C(=C\CN2CCCC2)c2ccccn2)cc1 [Triprolidine]
Histamine, H1
  Ki: 7.33 nM

## CC(C)NCC(O)COc1cccc2ccccc12 (centres unmarked) [propranolol]
P-gp (human MDR1); [20]
  Papp A→B at 1 h, 10 µM: 34.1 ×10⁻⁶ cm/s
P-gp (human MDR1); [21]
  Papp A→B at 1 h, 10 µM: 28 ×10⁻⁶ cm/s
P-gp (human MDR1); [22]
  Papp B→A at 1 h, 10 µM: 41.4 ×10⁻⁶ cm/s
P-gp (human MDR1); [23]
  Papp B→A at 1 h, 10 µM: 41.6 ×10⁻⁶ cm/s

## C=C(C)[C@H]1CN[C@H](C(=O)O)[C@H]1CC(=O)O [Kainic Acid]
[16]
  Ki: 10.8 nM

## Cc1o[nH]c(=O)c1CC(N)C(=O)O (racemic) [(+/-) AMPA HBr]
[17]
  Ki: 90.7 nM

## Angiotensin II (Human)
Angiotensin II, AT2
  Ki: 0.255 nM

## c1cc2c(cc1C1CCCCC1)c1c3n2CCNC3CCC1 (centres unmarked) [Tetrindole mesylate]
[18]
  Ki: 23.4 nM

## CN[C@H](CC(=O)O)C(=O)O [NMDA]
[19]
  Ki: 6810 nM

## COc1cc2nc(N3CCN(C(=O)c4ccco4)CC3)nc(N)c2cc1OC [prazosin]
P-gp (human MDR1); [20]
  Papp A→B at 1 h, 10 µM: 2.48 ×10⁻⁶ cm/s
P-gp (human MDR1); [21]
  Papp A→B at 1 h, 10 µM: 1.96 ×10⁻⁶ cm/s
P-gp (human MDR1); [22]
  Papp B→A at 1 h, 10 µM: 69.5 ×10⁻⁶ cm/s
P-gp (human MDR1); [23]
  Papp B→A at 1 h, 10 µM: 70.7 ×10⁻⁶ cm/s
